Assay results as given in the NIST ThermoML archive (doi:10.1021/je800998u).
Numbers after ± are expanded uncertainties.

Experiment: molar heat capacity at constant pressure
Details: 101.33 kPa, Small (less than 1 g) adiabatic calorimetry

CC(C)COCC(C)C [diisobutyl ether]
molar heat capacity at constant pressure (140.67 K, Crystal 2): 147.66 ± 0.79 J/K/mol | molar heat capacity at constant pressure (141.68 K, Crystal 2): 148.47 ± 0.79 J/K/mol | molar heat capacity at constant pressure (142.69 K, Crystal 2): 150.03 ± 0.8 J/K/mol | molar heat capacity at constant pressure (143.69 K, Crystal 2): 151.09 ± 0.8 J/K/mol | molar heat capacity at constant pressure (144.7 K, Crystal 2): 152.64 ± 0.81 J/K/mol | molar heat capacity at constant pressure (145.71 K, Crystal 2): 153.6 ± 0.81 J/K/mol | molar heat capacity at constant pressure (146.72 K, Crystal 2): 154.66 ± 0.82 J/K/mol | molar heat capacity at constant pressure (147.73 K, Crystal 2): 156 ± 0.82 J/K/mol | molar heat capacity at constant pressure (148.74 K, Crystal 2): 157.59 ± 0.83 J/K/mol | molar heat capacity at constant pressure (149.74 K, Crystal 2): 159.31 ± 0.84 J/K/mol | molar heat capacity at constant pressure (150 K, Crystal 2): 158.9 ± 0.8 J/K/mol | molar heat capacity at constant pressure (150.75 K, Crystal 2): 160.48 ± 0.84 J/K/mol | molar heat capacity at constant pressure (151.76 K, Crystal 2): 162.28 ± 0.85 J/K/mol | molar heat capacity at constant pressure (152.76 K, Crystal 2): 163.63 ± 0.85 J/K/mol | molar heat capacity at constant pressure (153.77 K, Crystal 2): 165.04 ± 0.86 J/K/mol | molar heat capacity at constant pressure (154.77 K, Crystal 2): 166.47 ± 0.87 J/K/mol | molar heat capacity at constant pressure (155.77 K, Crystal 2): 168.44 ± 0.87 J/K/mol | molar heat capacity at constant pressure (156.77 K, Crystal 2): 170.7 ± 0.88 J/K/mol | molar heat capacity at constant pressure (157.77 K, Crystal 2): 172.77 ± 0.89 J/K/mol | molar heat capacity at constant pressure (158.77 K, Crystal 2): 174.55 ± 0.9 J/K/mol | molar heat capacity at constant pressure (159.76 K, Crystal 2): 176.89 ± 0.91 J/K/mol | molar heat capacity at constant pressure (160 K, Crystal 2): 171.1 ± 0.9 J/K/mol | molar heat capacity at constant pressure (160.22 K, Crystal 2): 177.95 ± 0.91 J/K/mol | molar heat capacity at constant pressure (161.05 K, Crystal 2): 179.83 ± 0.92 J/K/mol | molar heat capacity at constant pressure (161.87 K, Crystal 2): 182.1 ± 0.93 J/K/mol | molar heat capacity at constant pressure (162.69 K, Crystal 2): 184.81 ± 0.94 J/K/mol | molar heat capacity at constant pressure (163.5 K, Crystal 2): 188 ± 0.95 J/K/mol | molar heat capacity at constant pressure (164.29 K, Crystal 2): 190.62 ± 0.97 J/K/mol | molar heat capacity at constant pressure (165.08 K, Crystal 2): 194.31 ± 0.98 J/K/mol | molar heat capacity at constant pressure (165.86 K, Crystal 2): 198.38 ± 1 J/K/mol | molar heat capacity at constant pressure (166.64 K, Crystal 2): 203.33 ± 1 J/K/mol | molar heat capacity at constant pressure (167.41 K, Crystal 2): 209.11 ± 1.1 J/K/mol | molar heat capacity at constant pressure (168.16 K, Crystal 2): 214.73 ± 1.1 J/K/mol | molar heat capacity at constant pressure (168.9 K, Crystal 2): 223.05 ± 1.1 J/K/mol | molar heat capacity at constant pressure (169.63 K, Crystal 2): 234.85 ± 1.4 J/K/mol | molar heat capacity at constant pressure (170.31 K, Crystal 2): 282.57 ± 1.9 J/K/mol | molar heat capacity at constant pressure (170.71 K, Crystal 1): 172.2 ± 0.9 J/K/mol | molar heat capacity at constant pressure (170.71 K, Crystal 2): 184.2 ± 0.9 J/K/mol | molar heat capacity at constant pressure (171.96 K, Crystal 1): 180.54 ± 0.92 J/K/mol | molar heat capacity at constant pressure (172.76 K, Crystal 1): 180.42 ± 0.92 J/K/mol | molar heat capacity at constant pressure (173.54 K, Crystal 1): 180.19 ± 0.92 J/K/mol | molar heat capacity at constant pressure (174.34 K, Crystal 1): 181.2 ± 0.93 J/K/mol | molar heat capacity at constant pressure (175.14 K, Crystal 1): 182.92 ± 0.93 J/K/mol | molar heat capacity at constant pressure (175.93 K, Crystal 1): 183.75 ± 0.94 J/K/mol | molar heat capacity at constant pressure (176.72 K, Crystal 1): 185.64 ± 0.94 J/K/mol | molar heat capacity at constant pressure (177.5 K, Crystal 1): 187.45 ± 0.95 J/K/mol | molar heat capacity at constant pressure (178.28 K, Crystal 1): 189.66 ± 0.96 J/K/mol | molar heat capacity at constant pressure (179.05 K, Crystal 1): 192.53 ± 0.97 J/K/mol | molar heat capacity at constant pressure (179.81 K, Crystal 1): 195.2 ± 0.98 J/K/mol | molar heat capacity at constant pressure (180 K, Crystal 1): 193.8 ± 1 J/K/mol | molar heat capacity at constant pressure (190.4 K, Crystal 1): 218 ± 1.1 J/K/mol | molar heat capacity at constant pressure (190.4 K, Liquid): 241.1 ± 1.2 J/K/mol | molar heat capacity at constant pressure (200 K, Liquid): 243.7 ± 1.2 J/K/mol | molar heat capacity at constant pressure (205.51 K, Liquid): 245.31 ± 1.2 J/K/mol | molar heat capacity at constant pressure (207.14 K, Liquid): 245.51 ± 1.2 J/K/mol | molar heat capacity at constant pressure (208.62 K, Liquid): 246.05 ± 1.2 J/K/mol | molar heat capacity at constant pressure (210 K, Liquid): 246.3 ± 1.2 J/K/mol | molar heat capacity at constant pressure (210.09 K, Liquid): 246.27 ± 1.2 J/K/mol | molar heat capacity at constant pressure (211.57 K, Liquid): 246.56 ± 1.2 J/K/mol | molar heat capacity at constant pressure (213.04 K, Liquid): 247.06 ± 1.2 J/K/mol | molar heat capacity at constant pressure (214.48 K, Liquid): 247.32 ± 1.2 J/K/mol | molar heat capacity at constant pressure (215.95 K, Liquid): 247.78 ± 1.2 J/K/mol | molar heat capacity at constant pressure (217.42 K, Liquid): 248.16 ± 1.2 J/K/mol | molar heat capacity at constant pressure (218.89 K, Liquid): 248.58 ± 1.2 J/K/mol | molar heat capacity at constant pressure (220 K, Liquid): 248.9 ± 1.2 J/K/mol | molar heat capacity at constant pressure (220.35 K, Liquid): 248.91 ± 1.2 J/K/mol | molar heat capacity at constant pressure (221.82 K, Liquid): 249.16 ± 1.2 J/K/mol | molar heat capacity at constant pressure (223.28 K, Liquid): 249.85 ± 1.2 J/K/mol | molar heat capacity at constant pressure (224.74 K, Liquid): 250.34 ± 1.2 J/K/mol | molar heat capacity at constant pressure (226.2 K, Liquid): 250.85 ± 1.2 J/K/mol | molar heat capacity at constant pressure (227.65 K, Liquid): 251.29 ± 1.2 J/K/mol | molar heat capacity at constant pressure (229.11 K, Liquid): 251.85 ± 1.2 J/K/mol | molar heat capacity at constant pressure (230 K, Liquid): 251.9 ± 1.2 J/K/mol | molar heat capacity at constant pressure (230.56 K, Liquid): 252.2 ± 1.2 J/K/mol | molar heat capacity at constant pressure (232.02 K, Liquid): 252.69 ± 1.2 J/K/mol | molar heat capacity at constant pressure (233.46 K, Liquid): 252.85 ± 1.2 J/K/mol | molar heat capacity at constant pressure (234.91 K, Liquid): 253.44 ± 1.2 J/K/mol | molar heat capacity at constant pressure (236.36 K, Liquid): 253.83 ± 1.2 J/K/mol | molar heat capacity at constant pressure (237.75 K, Liquid): 254.25 ± 1.2 J/K/mol | molar heat capacity at constant pressure (239.2 K, Liquid): 254.81 ± 1.2 J/K/mol | molar heat capacity at constant pressure (240 K, Liquid): 255 ± 1.2 J/K/mol | molar heat capacity at constant pressure (240.64 K, Liquid): 255.42 ± 1.2 J/K/mol | molar heat capacity at constant pressure (242.08 K, Liquid): 255.9 ± 1.2 J/K/mol | molar heat capacity at constant pressure (243.52 K, Liquid): 256 ± 1.2 J/K/mol | molar heat capacity at constant pressure (244.96 K, Liquid): 256.76 ± 1.2 J/K/mol | molar heat capacity at constant pressure (246.39 K, Liquid): 256.99 ± 1.2 J/K/mol | molar heat capacity at constant pressure (247.83 K, Liquid): 257.45 ± 1.2 J/K/mol | molar heat capacity at constant pressure (249.26 K, Liquid): 257.99 ± 1.2 J/K/mol | molar heat capacity at constant pressure (250 K, Liquid): 258.3 ± 1.2 J/K/mol | molar heat capacity at constant pressure (250.69 K, Liquid): 258.39 ± 1.2 J/K/mol | molar heat capacity at constant pressure (252.11 K, Liquid): 258.84 ± 1.2 J/K/mol | molar heat capacity at constant pressure (253.54 K, Liquid): 259.49 ± 1.2 J/K/mol | molar heat capacity at constant pressure (254.96 K, Liquid): 259.95 ± 1.2 J/K/mol | molar heat capacity at constant pressure (256.39 K, Liquid): 260.62 ± 1.2 J/K/mol | molar heat capacity at constant pressure (257.8 K, Liquid): 260.96 ± 1.2 J/K/mol | molar heat capacity at constant pressure (259.22 K, Liquid): 261.75 ± 1.2 J/K/mol | molar heat capacity at constant pressure (260 K, Liquid): 261.8 ± 1.2 J/K/mol | molar heat capacity at constant pressure (260.56 K, Liquid): 261.97 ± 1.2 J/K/mol | molar heat capacity at constant pressure (261.97 K, Liquid): 262.87 ± 1.2 J/K/mol
